Assay results taken from ChEMBL document CHEMBL4431345, “A fluorescence polarization based assay for the identification and characterization of polymerase inhibitors” (Bioorg Med Chem Lett, 2016).

Tests used:
[1] = Inhibition of Escherichia coli DNA polymerase 1 Klenow fragment preincubated for 15 mins followed by addition of DNA substrate for 60 mins in presence of dNTPS/TAMRA tracer by fluorescence polarization assay
[2] = Inhibition of Escherichia coli DNA polymerase 1 Klenow fragment preincubated for 15 mins followed by addition of DNA substrate for 60 mins in presence of dNTPS by picoGreen reagent based assay

`Nc1ncnc2c1ncn2[C@H]1CC[C@@H](COP(=O)(O)OP(=O)(O)OP(=O)(O)O)O1` [DDA-TRIPHOSPHATE] gave an IC50 [1] of 27 µM and an IC50 [2] of 69 µM.
